From BindingDB's records for doi:10.7270/Q2SX6BN0 (The Scripps Research Institute Molecular Screening Center, 2010)

Target: T1, NADPH oxidase 1 (Homo sapiens, UniProt Q9Y5S8)
T1 sequence (Q9Y5S8 whole entry): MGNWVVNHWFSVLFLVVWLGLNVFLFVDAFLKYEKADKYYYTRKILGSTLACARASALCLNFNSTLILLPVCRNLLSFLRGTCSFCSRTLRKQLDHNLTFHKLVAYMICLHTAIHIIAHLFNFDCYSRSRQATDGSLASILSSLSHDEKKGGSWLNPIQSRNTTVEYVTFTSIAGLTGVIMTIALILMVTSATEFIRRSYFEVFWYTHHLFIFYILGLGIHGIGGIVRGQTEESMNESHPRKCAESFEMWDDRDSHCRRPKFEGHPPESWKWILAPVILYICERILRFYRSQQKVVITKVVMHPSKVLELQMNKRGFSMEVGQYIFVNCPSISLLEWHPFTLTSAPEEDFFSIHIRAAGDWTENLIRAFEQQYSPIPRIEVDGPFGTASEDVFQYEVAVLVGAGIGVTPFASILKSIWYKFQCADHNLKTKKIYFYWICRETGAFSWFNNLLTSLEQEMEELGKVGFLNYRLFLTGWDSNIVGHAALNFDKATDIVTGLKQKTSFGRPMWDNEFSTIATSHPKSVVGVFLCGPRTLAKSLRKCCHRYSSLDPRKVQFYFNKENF
Test: HEK293 ROS counter-screen potency – cell-based, IC50, set 2, counter-screen for NOX1 inhibitor project, late-stage follow-up (AID 435002)

SMILES | IC50 [µM]
CN(C)c1ccc(CN=Nc2c(Cl)cncc2Cl)cc1 | 4
Oc1c(Br)cc(CN=Nc2c(Cl)cncc2Cl)cc1Br [4-[[2-[3,5-bis(chloranyl)pyridin-4-yl]hydrazinyl]methylidene]-2,6-bis(bromanyl)cyclohexa-2,5-dien-1-one] | 10
